In brackets after ≈: the same amount, converted by molar mass.
Assays:
Type in all cases: cell-based
[1] = system: Methicillin-resistant Staphylococcus aureus (MRSA); assay: In vitro antibacterial activity, standard agar dilution method, MRSA; conditions: clinically separated strains, read-out: Antibiotic Activity MIC MRSA
Source text: (§1) Strains for test: all the clinically separated strains below were purchased from public facilities.
(§2) Methicillin-resistant Staphylococcus aureus (MRSA), methicillin-resistant Staphylococcus epidermidis (MRSE), methicillin-sensitive Staphylococcus aureus (MSSA), methicillin-sensitive Staphylococcus epidermidis (MSSE), Enterococcus faecalis (efa), Enterococcus faecium (efm), streptococcus pneumoniae. Obtained from: Qianfoshan Hospital, First People's Hospital of Yunnan Province, Renji Hospital of Shanghai, People's Hospital of Jilin Province, Southwest Hospital.
(§3) some compounds of the present invention (chemical names and preparation methods thereof are as described in Preparation Examples of the compounds); linezolid (commercially available) and compound 38 (prepared following the process of Patent US2011098471).
(§4) standard agar dilution method, reference was made to National Committee for Clinical Laboratory Standards. 2006. Methods for Dilution Antimicrobial Susceptibility Tests for Bacteria That Grow Aerobically, Approved Standard Seventh Edition M7-A7.

[2] = system: methicillin-resistant Staphylococcus epidermidis (MRSE); assay: In vitro antibacterial activity, standard agar dilution method, MRSE; conditions: clinically separated strains, read-out: Antibiotic Activity MIC MRSE
Source text: as §1, §2, §3, §4

[3] = system: methicillin-sensitive Staphylococcus aureus (MSSA); assay: In vitro antibacterial activity, standard agar dilution method, MSSA; conditions: clinically separated strains, read-out: Antibiotic Activity MIC MSSA
Source text: as §1, §2, §3, §4

[4] = system: methicillin-sensitive Staphylococcus epidermidis (MSSE); assay: In vitro antibacterial activity, standard agar dilution method, MSSE; conditions: clinically separated strains, read-out: Antibiotic Activity MIC MSSE
Source text: as §1, §2, §3, §4

[5] = system: Enterococcus faecalis (efa); assay: In vitro antibacterial activity, standard agar dilution method, efa; conditions: clinically separated strains, read-out: Antibiotic Activity MIC efa
Source text: as §1, §2, §3, §4

[6] = system: Enterococcus faecium (efm); assay: In vitro antibacterial activity, standard agar dilution method, efm; conditions: clinically separated strains, read-out: Antibiotic Activity MIC efm
Source text: as §1, §2, §3, §4

streptococcus pneumoniae = assay: In vitro antibacterial activity, standard agar dilution method, Streptococcus pneumoniae; conditions: clinically separated strains
Source text: as §1, §2, §3, §4

MIC [1] [µg/mL]	MIC [2] [µg/mL]	MIC [3] [µg/mL]	MIC [4] [µg/mL]	MIC [5] [µg/mL]	MIC [6] [µg/mL]	Antibiotic Activity MIC Streptococcus pneumoniae (streptococcus pneumoniae) [µg/mL]	Structure (SMILES)
1 (≈ 2.44 µM)	0.5 (≈ 1.22 µM)	1 (≈ 2.44 µM)	0.5 (≈ 1.22 µM)	1 (≈ 2.44 µM)	0.5 (≈ 1.22 µM)	0.25	Cn1nnc(N2Cc3ccc(-c4ccc(N5C[C@H](CO)OC5=O)cc4F)cc3C2)n1 [Compound 1, (R)-3-(3-fluoro-4-(2-(2-methyl-2H-tetrazol-5-yl)isoindolin-5-yl)phenyl)-5-(hydroxylmethyl)oxazolidin-2-one]
0.25 (≈ 0.554 µM)	0.25 (≈ 0.554 µM)	0.5 (≈ 1.11 µM)	0.5 (≈ 1.11 µM)	0.5 (≈ 1.11 µM)	0.5 (≈ 1.11 µM)	0.5	CC(=O)NC[C@H]1CN(c2ccc(-c3ccc4c(c3)CN(c3nnn(C)n3)C4)c(F)c2)C(=O)O1 [Compound 2, (S)—N-((3-(3-fluoro-4-(2-(2-methyl-2H-tetrazol-5-yl)isoindolin-5-yl)phenyl)-2-oxo-oxazolidin-5-yl)methyl)acetamide]
0.5 (≈ 1.26 µM)	0.25 (≈ 0.632 µM)	0.5 (≈ 1.26 µM)	0.125 (≈ 0.316 µM)	0.5 (≈ 1.26 µM)	0.5 (≈ 1.26 µM)	0.5	O=C1O[C@@H](CO)CN1c1ccc(-c2ccc3c(c2)CN(c2cnn[nH]2)C3)c(F)c1 [Compound 3, (R)-3-(4-(2-(1H-1,2,3-triazol-5-yl)isoindolin-5-yl)-3-fluorophenyl)-5-(hydroxylmethyl)oxazolidin-2-one]
0.25 (≈ 0.573 µM)	0.25 (≈ 0.573 µM)	0.25 (≈ 0.573 µM)	0.125 (≈ 0.286 µM)	0.25 (≈ 0.573 µM)	0.25 (≈ 0.573 µM)	0.5	CC(=O)NC[C@H]1CN(c2ccc(-c3ccc4c(c3)CN(c3cnn[nH]3)C4)c(F)c2)C(=O)O1 [Compound 4, (S)—N-((3-(4-(2-(1H-1,2,3-triazol-5-yl)isoindolin-5-yl)-3-fluorophenyl)-2-oxo-oxazolidin-5-yl)methyl)acetamide]
1 (≈ 2.44 µM)	1 (≈ 2.44 µM)	1 (≈ 2.44 µM)	0.5 (≈ 1.22 µM)	2 (≈ 4.87 µM)	2 (≈ 4.87 µM)	1	Cn1nnnc1N1Cc2ccc(-c3ccc(N4C[C@H](CO)OC4=O)cc3F)cc2C1 [Compound 19]
2 (≈ 5.07 µM)	0.5 (≈ 1.27 µM)	1 (≈ 2.54 µM)	0.5 (≈ 1.27 µM)	8 (≈ 20.3 µM)	8 (≈ 20.3 µM)		O=C1O[C@@H](CO)CN1c1ccc(-c2ccc3c(c2)CN(c2ccn[nH]2)C3)c(F)c1 [Compound 20]
0.5 (≈ 1.11 µM)	0.25 (≈ 0.555 µM)	0.5 (≈ 1.11 µM)	0.5 (≈ 1.11 µM)	0.25 (≈ 0.555 µM)	0.5 (≈ 1.11 µM)	0.5	CC(=O)NC[C@H]1CN(c2ccc(-c3ccc4nc(-c5nnn(C)n5)cn4c3)c(F)c2)C(=O)O1 [Compound 38, reference compound]
2 (≈ 5.93 µM)	1 (≈ 2.96 µM)	2 (≈ 5.93 µM)	2 (≈ 5.93 µM)	2 (≈ 5.93 µM)	2 (≈ 5.93 µM)	2	CC(=O)NC[C@H]1CN(c2ccc(N3CCOCC3)c(F)c2)C(=O)O1 [Linezolid, reference compound]

From US9487545B2, “Fused ring-containing oxazolidinones antibiotics” (Xuanzhu Pharma Co., Ltd., priority 2011, dated 2016)
